Assay results reported in patent US8653086B2, “Naphthamides as anticancer agents” (Oregon Health & Science University, priority 2008, dated 2014).

Experiments:
MCF-7 cells [1] = assay: MCF-7 cell growth inhibition, MTT (Example 2); type: cell-based; details: Homo sapiens, MCF7, 72 h, mean ± SD of at least two measurements in duplicates unless noted
Experimental: (§1) HeLa cells (human cervical cancer cells) were obtained from American Type Culture Collection (ATCC) and maintained in Dulbecco's modified Eagle medium (DMEM, Invitrogen, Carlsbad, Calif.) supplemented with 10% (v/v) fetal calf serum (Sigma, St. Louis, Mo.), 10 μg/mL penicillin and 10 μg/mL streptomycin (Invitrogen, Carlsbad, Calif.) at 37° C. under 5% CO2. HeLa cells (2,000 cells/well) were plated in 96-well plates the day before experiment. On the day of experiment, different concentrations of the drugs (final concentration 10^−8-10^−4 M) in duplicates were added to the cells and the cells were further incubated for 72 h. Then, the number of live cells was quantified by 3-(4,5-dimethyl-2-thiazolyl)-2,5-diphenyl-2H-tetrazolium bromide (MIT reagent, Sigma, St. Louis, Mo.).
(§2) Following the same procedure, identical experiments were performed using, A549 cells (human lung cancer cells) and MCF-7 cells (human breast cancer cells).
(§3) The amount of reduced MTT formazan generated by live cells was determined by its absorbance at 570 nm after subtracting the background absorbance at 690 nm. The percent of cell growth was expressed as (A570(treated)−A570(initial))/(A570(vehicle treated)−A570(initial))×100, where A570(initial) represents initial cell population when drugs are added. The GI50 were derived from non-linear regression analysis of the dose-response curve using Prism 4.0 (GraphPad).

A549 cells [2] = assay: A549 cell growth inhibition, MTT (Example 2); type: cell-based; details: Homo sapiens, 72 h, mean ± SD of at least two measurements in duplicates unless noted
Experimental: as §1, §2, §3

HeLa cells [3] = assay: HeLa cell growth inhibition, MTT (Example 2); type: cell-based; details: Homo sapiens, 72 h, mean ± SD of at least two measurements in duplicates unless noted
Experimental: as §1, §3

[4] = Maximum tolerated dose in nude mice; type: in vivo; details: for tolerability: ten days
Experimental: The maximum tolerated dose (MTD) of compound 4 and compound 7 was evaluated in nude mice.
In this study 7 groups were established, each with three mice per group. 10 μl/g of a mixture of 10 ml of DMSO and 10 ml sterile saline was administered per day to group I, the control group; compound 4 was administered intravenously at dose levels of 10, 25, and 50 mg/kg and a dose volume of 10 μl/g per day to groups 2-4 respectively; and compound 7 was administered intravenously at dose levels of 10, 25, and 50 mg/kg and a dose volume of 10 μl/g per day to groups 5-7 respectively. The study was run for ten days.
Animals were monitored individually up to 7 days after final treatment. Daily general health observations included animal mortality, appearance, spontaneous activity, body posture, and food and water intake. Lesions and any other adverse reactions were recorded.

HeLa cells [5] = assay: HeLa cancer cell growth inhibition, MTT (Example 6); type: cell-based; details: Homo sapiens, 72-h incubation
Experimental: (§4) HeLa, A549, and MCF-7 cells, in a 96-well plate (1.0×10^5/well) were treated with different concentrations of the compounds for 72 h. Then the number of cells was quantified by incubating cells with MTT reagent (Sigma, 50 μg/mL) for 3 h. The reduced formazan product was solubilized in DMSO to be measured spectrophotometrically at 570 nm.

[6] = tested on: CREB-mediated gene transcription; assay: CREB renilla luciferase reporter assay in HEK293T cells; type: cell-based; details: Homo sapiens, HEK-293T, forskolin 10 μM, read-out: CREB transcription inhibition IC50
Experimental: HEK293T cells in a 10-cm plate were transfected with pCRE-RLuc (6.0 μg) with Lipofectamine™ 2000 (Invitrogen, Carlsbad, Calif.) according to manufacturer's protocol. After 3 h, the transfected cells were collected and replated into a 96-well plate (4×10^4 cells/well). The cells were allowed to attach to the bottom of the wells for overnight, when compounds of different concentrations were added to the cells. Forskolin (final concentration of 10 μM, Alexis Biochemicals, San Diego, Calif.) was added 30 min after the addition of the compounds. The cells were then incubated at 37° C. for 4.5 h and the media were removed. The cells were then lysed in renilla luciferase lysis buffer (Promega, Madison, Wis.). To measure luciferase activity, five μL of the lysate was combined with 30 μL of coelenterazine (Nanolight, Pinetop, Ariz.) solution in PBS (10 μg/mL). The sample protein concentration was determined by Dye Reagent Concentrate (Bio-Rad, Hercules, Calif.). The luciferase activity was normalized to protein content in each well and expressed as RLU/μg protein.

MCF-7 cells [7] = assay: MCF-7 cancer cell growth inhibition, MTT (Example 6); type: cell-based; details: Homo sapiens, MCF7, 72-h incubation
Experimental: as §4

A549 cells [8] = assay: A549 cancer cell growth inhibition, MTT (Example 6); type: cell-based; details: Homo sapiens, 72-h incubation
Experimental: as §4

KIX-KID interaction = target: T1, KIX-KID interaction (Homo sapiens, UniProt Q92793); assay: In vitro renilla luciferase complementation assay; type: biochemical; details: 4° C., 24 h, read-out: KIX-KID interaction inhibition IC50
T1 construct: RLucC-KIX (15 ng) and KID-RLucN-containing cell lysates; made in house
Experimental: RLucC-KIX (15 ng) and KID-RLucN-containing cell lysates (0.5 mg) were mixed together in renilla luciferase lysis buffer (Promega, Madison, Wis.) in the presence of different concentrations of compounds. The final volume of the incubation mixture is 30 μL. The mixture was incubated at 4° C. for 24 h. Then renilla luciferase activity was measured by combining 5 μL of incubation mixture with 30 μL of coelenterazine solution in PBS (pH 7.4, 10 μg/mL).

T1 sequence (Q92793 587-666 limits assumed): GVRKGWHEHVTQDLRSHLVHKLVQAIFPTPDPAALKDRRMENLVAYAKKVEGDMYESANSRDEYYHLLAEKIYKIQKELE

SMILES	GI50 (MCF-7 cells [1])	GI50 (A549 cells [2])	GI50 (HeLa cells [3])	other results
NCCCOc1cc(Cl)ccc1NC(=O)c1cc2ccccc2cc1OCCCN [drawing 36]	1.65 ± 0.42 µM	2.57 ± 0.41 µM	0.48 ± 0.35 µM	
O=C(Nc1cnccn1)c1cc2ccccc2cc1O	12.7 ± 13.2 µM	32.2 ± 2.88 µM	12.6 ± 12.1 µM	
NCCCOc1cc2ccccc2cc1C(=O)Nc1ccc(Cl)cc1OC(=O)c1cc2ccccc2cc1OCCCN [Compound 7]				tolerability ([4]; 10 mg/kg per day intravenously): tolerated very well; tolerability ([4]; 25 mg/kg per day intravenously): tolerated very well; local effect at injection site ([4]; 50 mg/kg intravenously): severe irritative effect on tail skin; tolerability ([4]; 50 mg/kg per day intravenously): tolerated very well
O=C(Nc1ccc(Cl)cc1)c1cc2ccccc2cc1OP(=O)(O)O [drawing 33]	1.93 µM	1.94 µM	2.53 ± 0.58 µM	
COc1cc2ccccc2cc1C(=O)Nc1ccc(Cl)cc1OC(=O)c1cc2ccccc2cc1OC [drawing 55]				GI50 (HeLa cells [5]): 0.33 ± 0.07 µM; IC50 [6]: 1.14 µM; GI50 (MCF-7 cells [7]): 3.38 ± 0.49 µM; GI50 (A549 cells [8]): 8.78 ± 2.55 µM; IC50 (KIX-KID interaction): 0.25 µM
Cl.Cl.NCCCOc1cc(Cl)ccc1NC(=O)c1cc2ccccc2cc1OCCCN [Compound 4, 3-(3-Aminopropoxyl)-N-(2-(3-aminopropoxy)-4-chlorophenyl)-2-naphthamide dihydrochloride]				tolerability ([4]; 10 mg/kg per day intravenously): tolerated very well; tolerability ([4]; 25 mg/kg per day intravenously): tolerated very well; tolerability ([4]; 50 mg/kg per day intravenously): minor toxicity; body weight loss ([4]; 50 mg/kg, two of three animals at day 5 and day 6, recovery from day 7): 10-20%
O=C(Nc1ccncc1)c1cc2ccccc2cc1O	15.8 ± 5.29 µM	25 ± 10.7 µM	6.14 ± 3.03 µM	
NCCCOc1cc2ccccc2cc1C(=O)Nc1ccc(Cl)cc1	0.84 ± 0.18 µM	3.42 ± 0.43 µM	1.47 ± 0.42 µM	
O=C(Nc1ccc([N+](=O)[O-])cc1)c1cc2ccccc2cc1O	1.5 ± 0.16 µM	3.28 ± 0.31 µM	2.94 ± 0.7 µM	
O=C(Nc1ccc(Cl)cc1)c1cc2ccccc2cc1O [drawing 53]				GI50 (HeLa cells [5]): 2.97 ± 0.74 µM; IC50 [6]: 2.2 µM; GI50 (MCF-7 cells [7]): 2.56 ± 0.45 µM; GI50 (A549 cells [8]): 4.58 ± 1.52 µM; IC50 (KIX-KID interaction): 2.41 µM
COc1cc2ccccc2cc1C(=O)Oc1cc(Cl)ccc1NC(=O)c1cc2ccccc2cc1OCCCN				GI50 (HeLa cells [5]): 3.12 µM; GI50 (MCF-7 cells [7]): 29.4 µM; GI50 (A549 cells [8]): 12.9 µM
O=C(Nc1ccc(F)c(Cl)c1)c1cc2ccccc2cc1O	5.21 ± 4.92 µM	3.76 ± 0.31 µM	2.44 ± 0.56 µM	
O=C(Nc1ccccn1)c1cc2ccccc2cc1O	6.25 ± 5.89 µM	75.8 ± 23.1 µM	11.5 ± 8.9 µM	
NCCCOc1cc2ccccc2cc1C(=O)Nc1ccc(Cl)cc1OC(=O)c1cc2ccccc2cc1OCCCN [drawing 56]				GI50 (HeLa cells [5]): 0.29 ± 0.05 µM; IC50 [6]: 2.74 µM; GI50 (MCF-7 cells [7]): 0.42 ± 0.15 µM; GI50 (A549 cells [8]): 0.59 ± 0.02 µM; IC50 (KIX-KID interaction): 7.08 µM
O=C(Nc1ccc(Cl)cc1)c1cc2ccccc2cc1O [drawing 32]	2.76 ± 0.35 µM	2.88 ± 0.35 µM	2.52 ± 0.77 µM	
O=C(Nc1ccc(F)c(F)c1)c1cc2ccccc2cc1O	2.09 ± 0.82 µM	3.57 ± 0.23 µM	2.18 ± 0.17 µM	
COc1cc2ccccc2cc1C(=O)Nc1ccc(Cl)cc1	24.8 ± 0.94 µM	62 ± 15.5 µM	5.2 ± 0.61 µM	
O=C(Nc1ccc(F)cc1)c1cc2ccccc2cc1O	2.34 ± 0.51 µM	6.78 ± 1.32 µM	2.06 ± 0.31 µM	
COc1ccc(NC(=O)c2cc3ccccc3cc2O)cc1	6.55 ± 2.28 µM	85.7 ± 8.74 µM	8.32 ± 0.55 µM	
NCCCOc1cc(Cl)ccc1NC(=O)c1cc2ccccc2cc1OCCCN [drawing 54]				GI50 (HeLa cells [5]): 0.71 ± 0.21 µM; IC50 [6]: 22.9 µM; GI50 (MCF-7 cells [7]): 1.69 ± 0.39 µM; GI50 (A549 cells [8]): 1.84 ± 0.11 µM; IC50 (KIX-KID interaction): 14.7 µM
CN(C(=O)c1cc2ccccc2cc1O)c1ccc(Cl)cc1	13.6 ± 4.9 µM	29.5 ± 5.27 µM	12.9 ± 4.34 µM	
O=C(Nc1ccc(O)cc1)c1cc2ccccc2cc1O	6.8 ± 6.34 µM	28.1 µM	42.3 ± 6.7 µM	
COc1cc2ccccc2cc1C(=O)Nc1ccc(Cl)cc1OC(=O)c1cc2ccccc2cc1OCCCN				GI50 (HeLa cells [5]): 2.33 µM; GI50 (MCF-7 cells [7]): 19.4 µM; GI50 (A549 cells [8]): 12.9 µM
O=C(Nc1ccc(I)cc1)c1cc2ccccc2cc1O	9.76 ± 6.31 µM	5.45 ± 0.89 µM	3.74 ± 0.81 µM	
O=C(Nc1ccc(Br)cc1)c1cc2ccccc2cc1O	1.83 ± 0.7 µM	3.98 ± 0.65 µM	2.12 ± 0.007 µM	
O=C(Nc1ccccc1)c1cc2ccccc2cc1O	4.87 ± 1.27 µM	56.9 ± 7.75 µM	26.9 µM	
COc1cc2ccccc2cc1C(=O)Nc1ccc(Cl)cc1OC(=O)c1cc2ccccc2cc1OC [drawing 35]	2.96 ± 0.66 µM	5.25 ± 0.75 µM	0.27 ± 0.19 µM	
Nc1ccc(NC(=O)c2cc3ccccc3cc2O)cc1	28 ± 4.63 µM	51.6 ± 11.9 µM	67.2 ± 46.3 µM	
O=C(Nc1ccc(C(F)(F)F)cc1)c1cc2ccccc2cc1O	3.62 ± 2.56 µM	4.15 ± 0.5 µM	2.4 ± 0.36 µM	
